In the experiment the test system is neurons induced to differentiate from SCN1A gene deficient human iPS cells. Put plainly: Test for measuring hyperexcitation suppression activity (spontaneous calcium oscillation frequency). It counts as cell-based. As to conditions: Neuron; for pIC50: SCN1A gene deficient human iPS cell-derived neurons, FLIPR Calcium 6, FDSS7000EX, read-out: IC50 (50% inhibitory concentration, frequency of spontaneous calcium oscillation). The source says:
Test for Measuring Hyperexcitation Suppression Activity Using Neurons Induced to Differentiate from SCN1A Gene Deficient Human iPS Cells
(1) Induction of Differentiation from Human iPS cells to Neurons
Half of the culture solution was exchanged once every 3 to 4 days.
(2) Fluorescent Calcium Probe Treatment, Addition of Compound, and Evaluation of Intracellular Calcium Concentration
Half of the culture solution was removed on day 60 from induction of differentiation or thereafter. A medium for measurement comprising a fluorescent calcium probe (Molecular Device, product name: FLIPR Calcium 6 Assay Bulk Kit, cat #R8191) was added at an amount equal to the remaining medium. The culture was left standing for 30 minutes and subjected to measurement.
The test compounds were serially diluted with a dimethyl sulfoxide (DMSO) solution so that the final concentration would be 0.1 to 100 μM to prepare a concentrate with a concentration that is 6-fold of the final concentration.
The intensity of fluorescence of a calcium probe was measured over time with FDSS7000EX (Hamamatsu Photonics) to evaluate the change in intracellular calcium concentrations. First, the intensity of fluorescence was measured for 2 minutes. The compound solutions were then added using FDSS7000EX for an additional 8 minute measurement of fluorescence intensity. The frequency of spontaneous calcium oscillation was quantified as an indicator of nerve excitation. With the frequency for 2 minutes before the addition of the compound solutions as 100%, the ratio of frequency for the last 2 minutes after addition of the compound solutions was calculated.

Where [1] appears, read: Homo sapiens, read-out: inhibition rate.

pIC50: −log10 of the molar value.

Turning to `CCc1ccc(Nc2nc3ccc(Cl)cc3c(=O)n2-c2ccccc2)cn1` [Example 49], under setting [1], the inhibition (as a rule, how much of the control response was suppressed) at 10 µM worked out at 34%. As to `O=c1c2cc(F)ccc2nc(Nc2cccnc2)n1CCC(F)(F)F` [Example 171], under setting [1], the inhibition at 100 µM is 100%. Consider `O=c1c2cc(F)ccc2nc(Nc2cccnc2)n1C1COC1` [Example 204], for which the pIC50 was less than 5.00.

As for `COc1cc(Nc2nc3ccc(F)cc3c(=O)n2-c2ccccc2)ccn1` [Example 227], the pIC50 is less than 4.00.

On to `CCc1ccc(Nc2nc3ccc(F)cc3c(=O)n2-c2ccccc2)cn1` [Example 50], for which, under setting [1], the inhibition at 10 µM came out at 100%. Take `O=c1c2cc(F)ccc2nc(Nc2cccnc2)n1-c1ccc(Cl)cc1` [Example 135]: the inhibition at 1 µM under setting [1] turned out to be 24%. Regarding `O=c1c2cc(F)ccc2nc(Nc2cccnc2)n1C1(c2ccccc2)CCC1` [Example 205], the pIC50 is less than 5.00. Same read-out and setting: next, `CC(=O)Nc1ccc2nc(Nc3cccnc3)n(-c3ccccc3)c(=O)c2c1` [Example 210]: less than 4.00.

In the case of `COc1ccc(-n2c(Nc3cccnc3)nc3ccc(F)cc3c2=O)cc1` [Example 143], the inhibition at 1 µM under setting [1] is 45%.

On to `CN1CCC(Cn2c(Nc3cccnc3)nc3ccc(F)cc3c2=O)CC1` [Example 156], for which the inhibition at 10 µM under setting [1] came out at 95%. In the case of `Cn1cnc2ccc(Nc3nc4ccccc4c(=O)n3-c3ccccc3)cc21` [Example 2, 2-((1-methyl-1H-benzo[d]imidazol-6-yl)amino)-3-phenylquinazolin-4(3H)-one], the inhibition at 10 µM under setting [1] was found to be 57%. Take `O=c1c2cc(F)ccc2nc(Nc2cccnc2)n1C1CCN(C2CC2)CC1` [Example 170]: under setting [1], the inhibition at 100 µM was 100%. Turning to `O=c1c2cc(F)ccc2nc(Nc2csc(Cl)c2)n1-c1ccccc1` [Example 209], the pIC50 is less than 4.00. As to `O=c1c2cc(Cl)ccc2nc(Nc2ccc3nncn3c2)n1-c1ccccc1` [Example 16], under setting [1], the inhibition at 10 µM stood at 42%. Consider `O=c1c2cc(F)ccc2nc(Nc2cccnc2)n1-c1cncs1` [Example 160], for which, under setting [1], the inhibition at 10 µM came out at 58%. For `CN1[C@@H]2CC[C@H]1C[C@@H](n1c(Nc3cccnc3)nc3ccc(F)cc3c1=O)C2` [Example 80], under setting [1], the inhibition at 10 µM stood at 49%.

Regarding `COc1ccc2nc(Nc3cccnc3)n(-c3ccccc3)c(=O)c2c1` [Example 13], the inhibition at 100 µM under setting [1] stood at 20%. Take `Cc1ccc2c(=O)n(-c3ccccc3)c(Nc3cccnc3)nc2c1` [Example 86]: under setting [1], the inhibition at 100 µM turned out to be 31%. On to `O=c1c2ccccc2nc(Nc2cccnc2)n1C12CCN(CC1)CC2` [Example 119], for which, under setting [1], the inhibition at 1 µM turned out to be 20%. For `O=c1c2cc(F)ccc2nc(Nc2cccnc2)n1-c1ccccc1F` [Example 108, 6-fluoro-3-(2-fluorophenyl)-2-(pyridin-3-ylamino)quinazolin-4(3H)-one], under “Homo sapiens, @0.1 μM, read-out: inhibition rate”, the inhibition at 0.1 µM was determined as 62%.

For the compound `Cn1cc(Nc2nc3ccc(Cl)cc3c(=O)n2-c2ccccc2)cn1` [Example 186], the inhibition at 10 µM under setting [1] was 100%. Take `CN1CC(c2ccccc2)(n2c(Nc3cccnc3)nc3ccc(F)cc3c2=O)C1` [Example 176]: under setting [1], the inhibition at 10 µM was found to be 88%.

On to `N#Cc1ccc2nc(Nc3ccccn3)n(-c3ccccc3)c(=O)c2c1` [Example 88], for which the inhibition at 10 µM under setting [1] turned out to be 95%. On the same count and under the same terms, next, `O=c1c2cc(F)ccc2nc(Nc2cccnc2)n1C1CC1` [Example 165]: 100%.

As for `Cc1cccc2nc(Nc3cccnc3)n(-c3ccccc3)c(=O)c12` [Example 223], the pIC50 was less than 4.00. The same measure, in the same setting: for `O=c1c2ccc(F)cc2nc(Nc2cccnc2)n1-c1ccccc1` [Example 222] the value was less than 4.00. In the case of `Cc1cncc(Nc2nc3ccc(F)cc3c(=O)n2-c2ccccc2)c1` [Example 27], the inhibition at 1 µM under setting [1] was found to be 37%. In the case of `COc1ccnc(Nc2nc3ccc(F)cc3c(=O)n2-c2ccccc2)c1` [Example 187], the pIC50 is less than 5.00. With `C[C@]1(N)CC[C@H](n2c(Nc3cccnc3)nc3ccccc3c2=O)CC1` [Example 73], under setting [1], the inhibition at 1 µM is 86%. For `Cc1cnc2nc(Nc3cccnc3)n(-c3ccccc3)c(=O)c2c1` [Example 202], the pIC50 is less than 5.00.

The record behind these values is patent US12404268B2, “2-heteroaryl aminoquinazolinone derivative” (Sumitomo Pharma Co., Ltd., priority 2020, dated 2025).
